Measurements published in patent publication US12152048B2, “Nitroxoline prodrug and use thereof” (Jiangsu Yahong Meditech Co., Ltd., priority 2018, dated 2024).
≈ marks a conversion by molar mass, not a printed value.

Assays:
[1] = Determination of water solubility in phosphate buffer; assay type: physicochemical; conditions: for solubility at 24 h: aqueous buffer, thermodynamic from solid, phosphate buffer pH 7.4, room temperature
Method in brief: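 Thermodynamic solubility: compound concentration measured by LC/MS/MS in the vacuum filtrate after 24 h shaking at room temperature of 2 mg powder in 500 μL phosphate buffer at pH 1.2, 4.5, 6.8 or 7.4.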

[2] = Stability in mouse liver microsome; assay type: in vitro ADME; conditions: 2 μM, 37° C., 30 minutes
[3] = Stability in liver microsome, overall conclusion (species not stated); assay type: in vitro ADME; conditions: conclusion in words
[4] = Stability in rat plasma
[5] = Stability in human plasma
[6] = Stability in dog liver microsome; conditions: 2 μM, 37° C., 30 minutes
[7] = Stability in rat liver microsome; conditions: 2 μM, 37° C., 30 minutes
[8] = Stability in human liver microsome; conditions: 2 μM, 37° C., 30 minutes
[9] = Stability in plasma, overall conclusion (species not stated); conditions: conclusion in words
[10] = Stability in dog plasma; assay type: in vitro ADME
[11] = Stability in mouse plasma; assay type: in vitro ADME
Description: (§1) Experimental instruments: thermostatic shaker (SHA-B, Guohua Electric Appliance Co., Ltd.); centrifuge (5810R, Eppendorf); mass spectrometry (AP4000, Applied Biosystems, USA); liquid chromatography (LC-30AD, Shimadzu); sample injector (CTC Analytics AG System, CTC).
(§2) Test animals: plasma of human (batch number: BRH1343165), rat (batch number: RAT336728), mouse (batch number: MSE280000), dog (batch number: BGL99137) and monkey (batch number: PH-Monkey-20180821) are purchased from Shanghai Sixin Biological Technology Co., Ltd.
(§3) Experimental process: the compound of the present invention was dissolved in an organic solvent to obtain a 1 mM working solution. 3 μL of the working solution were added to 597 μL of pre-incubated human or rat plasma and mixed well. 50 μL of the solution were immediately taken out as the 0 minute sample. The remaining sample was incubated at 37° C., and 50 μL of sample were taken out at 15, 30, 60 and 120 minutes respectively. All the samples taken out were immediately processed to precipitate protein, and centrifuged to obtain a supermate for the determination of the compound concentration by LC/MS/MS.

[12] = Stability in monkey plasma; assay type: in vitro ADME
Description: as §1, §2, §3

[13] = Pharmacokinetics assay in dog (nitroxoline concentration in plasma after single intravenous or oral administration); assay type: in vivo, beagle dog; conditions: nitroxoline in beagle dog plasma
Description: Nitroxoline is mainly metabolized by the phase II metabolism in liver with a fast metabolism rate, so it has a short half-life in the body. The present invention modified its structure and 13 compounds of formula (I) were obtained through chemical synthesis. The change of nitroxoline concentration in dog plasma after a single intravenous or oral administration of nitroxoline and the compound of formula (I) was studied to evaluate the pharmacokinetic behavior of nitroxoline and the compound of formula (I) in dog body.
Male beagle dog (Beijing Marshall Biotechnology Co., Ltd., Certificate No.: SCXK (BJ) 2016-0001, Qualified number: 11400600001728), 3 dogs per group, weight 10 to 13 kg, 20 to 22 months old. The dogs were fasted overnight before the administration with free access to water, and fed 4 hours after the administration. The test compound was added to an EP tube, and then added with DMSO, solutol and sterilized water for injection (the volume ratio of the three was 1:2:17, v:v:v). The EP tube was subjected to ultrasound for 20 minutes to make the test compound dissolve well (compound concentration: 0.005 mmol/mL). The dose for intravenous administration was 0.01 mmol/kg, and the dose for oral administration was 0.1 mmol/kg. 0.3 ml of whole blood was collected from jugular vein before the administration (0 hour) and 0.0833, 0.25, 0.5, 1, 2, 4, 6, 8, 10 and 12 hours after the administration (sampling points can be adjusted according to the specific situation) respectively. The blood sample was placed in a centrifuge tube containing EDTA-K2 anticoagulant (Aldrich), and the centrifuge tube was left to stand in ice. The blood sample was centrifuged for 10 minutes at 1530 g within 0.5 hour to obtain all clean plasma. The plasma was placed in another clean centrifuge tube, and stored in a refrigerator at −20° C. for later use.
Solution for standard curve was formulated. 1000 μL of internal standard working solution (containing a solution of verapamil (5 ng/mL, Aldrich), glibenclamide (50 ng/mL, Aldrich) and diclofenac (50 ng/mL, Aldrich) in acetonitrile) was added to 10 μL of the solution for standard curve and sample, and the mixture was shaked by vortex for 5 minutes. The mixture was centrifuged for 10 minutes at 4° C., 3700 rpm. 60 μL of the supernatant were placed in an injection tube, and mixed with 120 μL of water. 10 μL of the solution were injected into the liquid chromatography-mass spectrometry system for determination. The pharmacokinetic parameters were calculated by the WinNonlin V 6.2 non-compartmental model.

Row | solubility at 24 h [1] | Percentage of the compound remaining in mouse liver microsome ([2]; with coenzyme) | Percentage of the compound remaining in mouse liver microsome ([2]; without coenzyme) | stability in microsome [3] | Percentage of the compound remaining in plasma ([4]; 0 minute) | Percentage of the compound remaining in plasma ([4]; 37° C., 15 minutes) | Percentage of the compound remaining in plasma ([4]; 37° C., 30 minutes) | Percentage of the compound remaining in plasma ([4]; 37° C., 60 minutes) | Percentage of the compound remaining in plasma ([4]; 37° C., 120 minutes) | Percentage of the compound remaining in plasma ([5]; 0 minute) | Percentage of the compound remaining in plasma ([5]; 37° C., 15 minutes) | Percentage of the compound remaining in plasma ([5]; 37° C., 30 minutes) | Percentage of the compound remaining in plasma ([5]; 37° C., 60 minutes) | Percentage of the compound remaining in plasma ([5]; 37° C., 120 minutes) | Percentage of the compound remaining in dog liver microsome ([6]; with coenzyme) | Percentage of the compound remaining in dog liver microsome ([6]; without coenzyme) | Percentage of the compound remaining in rat liver microsome ([7]; with coenzyme) | Percentage of the compound remaining in rat liver microsome ([7]; without coenzyme) | Percentage of the compound remaining in human liver microsome ([8]; with coenzyme) | Percentage of the compound remaining in human liver microsome ([8]; without coenzyme) | other results | SMILES
1 | 687 µg/mL (≈ 1960 µM) | 95.16% | 105.69% | high stability | 100.0% | 102.5% | 90.1% | 84.6% | 71.3% | 100.0% | 95.6% | 94.1% | 89.2% | 83.3% | 85.67% | 91.82% | 101.34% | 99.39% | 102.24% | 108.46% | water solubility compared with nitroxoline ([1]; conclusion in words): increased by several times; stability in plasma [9]: high stability | CN(CC(O)CO)C(=O)OCOc1ccc([N+](=O)[O-])c2cccnc12 (stereo not drawn) [Compound 52, (5-nitroquinolin-8-yloxy)methyl 2,3-dihydroxypropyl(methyl)carbamate]
2 | 45.5 µg/mL (≈ 136 µM) | 32.13% | 55.80% | high stability | – | – | – | – | – | – | – | – | – | – | 70.38% | 82.59% | 54.58% | 54.77% | 79.98% | 84.61% | Percentage of the compound remaining in plasma ([10]; 0 minute): 100.0%; Percentage of the compound remaining in plasma ([10]; 37° C., 15 minutes): 96.3%; Percentage of the compound remaining in plasma ([10]; 37° C., 30 minutes): 92.3%; Percentage of the compound remaining in plasma ([10]; 37° C., 60 minutes): 78.6%; Percentage of the compound remaining in plasma ([10]; 37° C., 120 minutes): 67.3%; stability in plasma [9]: high stability | COC(=O)CNC(=O)OCOc1ccc([N+](=O)[O-])c2cccnc12 [Compound 53, methyl 2-(((5-nitroquinolin-8-yloxy)methoxy)formamido)acetate]
3 | 352 µg/mL (≈ 1850 µM) | – | – | – | 100.0% | 93.9% | 94.1% | 95.3% | 88.4% | 100.0% | 99.3% | 98.3% | 100.6% | 91.6% | – | – | – | – | – | – | Percentage of the compound remaining in plasma ([11]; 0 minute): 100.0%; Percentage of the compound remaining in plasma ([11]; 37° C., 15 minutes): 95.8%; Percentage of the compound remaining in plasma ([11]; 37° C., 30 minutes): 97.4%; Percentage of the compound remaining in plasma ([11]; 37° C., 60 minutes): 97.4%; Percentage of the compound remaining in plasma ([11]; 37° C., 120 minutes): 93.0%; Percentage of the compound remaining in plasma ([10]; 0 minute): 100.0%; Percentage of the compound remaining in plasma ([10]; 37° C., 15 minutes): 100.8%; Percentage of the compound remaining in plasma ([10]; 37° C., 30 minutes): 101.1%; Percentage of the compound remaining in plasma ([10]; 37° C., 60 minutes): 95.3%; Percentage of the compound remaining in plasma ([10]; 37° C., 120 minutes): 98.4%; Percentage of the compound remaining in plasma ([12]; 0 minute): 100.0%; Percentage of the compound remaining in plasma ([12]; 37° C., 15 minutes): 101.2%; Percentage of the compound remaining in plasma ([12]; 37° C., 30 minutes): 104.0%; Percentage of the compound remaining in plasma ([12]; 37° C., 60 minutes): 101.8%; Percentage of the compound remaining in plasma ([12]; 37° C., 120 minutes): 100.4%; AUC0-inf ([13]; intravenous administration 0.01 mmol/kg): 3300 ng*hmL^−1; AUC0-inf ([13]; oral administration 0.1 mmol/kg): 4780 ng*hmL^−1 | O=[N+]([O-])c1ccc(O)c2ncccc12 [Nitroxoline]
